# Test results as given in article PMC6278658, “Two New Altenusin/Thiazole Hybrids and a New Benzothiazole Derivative from the Marine Sponge-Derived Fungus Alternaria sp. SCSIOS02F49” (Molecules, 2018).
# Experiments:
# [1] = DPPH radical scavenging activity; details: for IC50: DPPH 0.1 mM in ethanol, 30 min at room temperature in the dark, absorbance at 517 nm, triplicates, read-out: DPPH Free Radical Scavenging Activity (IC50); for DPPH free-radical-scavenging activity compared with BHT: comparison with positive control BHT
# Description: The DPPH (2,2-diphenyl-1-picrylhydrazyl) radical scavenging ability of the sample was conducted based on the method described by Kumagai et al. with minor modifications. The reaction mixture was with DPPH (0.1 mM, dissolved in ethanol) and various concentrations of sample in equal volumes, which was incubated at room temperature for 30 min in the dark. The absorbance of the mixture was measured at 517 nm using UV (UV-2600, UNICO Instrument Co. Ltd., Shanghai, China). The final concentrations of each compound in the wells were confined as 1000, 333, 111, 37.0, 12.3, 4.11, 1.37, and 0.46 μM. The ethanol and butylated hydroxytoluene (BHT), instead of samples, were used for a blank and positive control, respectively. Each assay was carried out in triplicates. IC50, the concentration of elimination of 50% DPPH radical scavenging activity, was measured by non-liner regression.
# [2] = set-up: method as in PMID 22061662; details: previous study; cited from earlier work
# [3] = target: T1, Human recombinant COX-2 enzyme (Homo sapiens, UniProt P35354); assay: COX-2 inhibitory activity assay (Cayman COX Fluorescent Inhibitor Screening Assay Kit); assay type: biochemical; details: 15 min pre-incubation, arachidonic acid substrate, fluorescence 530/595 nm, triplicates
# T1 construct: purchased Cayman #700100
# T1 sequence (P35354 18-604): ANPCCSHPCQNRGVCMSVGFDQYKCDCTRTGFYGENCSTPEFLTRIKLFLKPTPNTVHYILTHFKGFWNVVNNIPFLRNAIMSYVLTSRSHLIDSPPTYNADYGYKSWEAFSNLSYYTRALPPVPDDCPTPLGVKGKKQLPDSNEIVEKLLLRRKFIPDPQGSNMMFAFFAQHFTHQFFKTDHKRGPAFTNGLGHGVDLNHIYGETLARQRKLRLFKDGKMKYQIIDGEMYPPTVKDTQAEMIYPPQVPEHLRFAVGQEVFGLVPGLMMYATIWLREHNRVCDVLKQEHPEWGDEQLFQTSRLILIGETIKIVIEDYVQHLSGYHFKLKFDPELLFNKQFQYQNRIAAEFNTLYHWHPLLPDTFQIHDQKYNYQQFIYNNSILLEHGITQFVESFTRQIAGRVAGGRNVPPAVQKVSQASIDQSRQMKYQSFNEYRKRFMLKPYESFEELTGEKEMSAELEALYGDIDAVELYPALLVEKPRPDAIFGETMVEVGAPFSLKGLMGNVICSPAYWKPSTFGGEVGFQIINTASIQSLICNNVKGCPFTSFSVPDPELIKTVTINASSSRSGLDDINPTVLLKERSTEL
# Description: The COX-2 inhibitory activity assay of sample was conducted according to a previously reported method. […] Human recombinant COX-2 enzyme was pre-incubated with inhibitors for 15 min at normal temperature, followed by the addition of heme and fluorometric substrate and incubation for another 15 min at normal temperature. The reaction was started by the addition of arachidonic acid and allowed to proceed for 2 min. […] Each assay was carried out in triplicates. IC50, was measured by non-liner regression.
Compound,IC50 [1] [µM],DPPH free-radical-scavenging activity compared with BHT [1],radical scavenging activity in comparison with vitamin C [2],IC50 [3] [µM]
"COc1cc(O)cc(-c2cc(O)c(O)cc2C)c1 [Compound 5, 5′-methoxy-6-methyl-biphenyl-3,4,3′-triol]",100.6 ± 0.025,higher DPPH free-radical-scavenging activities than BHT,strong radical scavenging activity,9.5 ± 0.08
"COc1cc(O)c(C(=O)O)c(-c2cc(O)c3ncsc3c2C)c1 [Compound 2, altenusinoides B]",> 1000,–,–,> 30
"Cc1cc(C(C)(C)C)c(O)c(C(C)(C)C)c1 [BHT, butylated hydroxytoluene, reference compound]",170.3 ± 0.06,–,–,–
"COc1cc(O)c(C(=O)O)c(-c2c(C)cc(O)c3ncsc23)c1 [Compound 1, Altenusinoides A]",> 1000,–,–,> 30
"COc1cc(O)c(C(=O)O)c(-c2cc(O)c(O)cc2C)c1 [Compound 4, Altenusin]",10.7 ± 0.09,higher DPPH free-radical-scavenging activities than BHT,strong radical scavenging activity,> 30
"COc1cc(O)cc(C2=C(C)C[C@H](O)C2=O)c1 [Compound 6, (S)-alternariphent A1]",> 1000,–,–,> 30
"COC(=O)Cc1cc(O)cc2scnc12 [Compound 3, methyl 2-(6-hydroxybenzothiazol-4-yl) acetate]",> 1000,–,–,> 30
